From patent publication US8987314B2, “Amide, urea or sulfone amide linked benzothiazole inhibitors of endothelial lipase” (Bristol-Myers Squibb Company, priority 2012, dated 2015)
pIC50: −log10 of the molar value. Like-named read-outs stand apart in the source and are kept apart here.

Key:
hepatic lipase (HL) = hepatic lipase (HL) (Homo sapiens (Human), UniProt P11150); test: HL assay: hepatic lipase activity with fluorescent substrate A10070 in DMPG vesicles; format: biochemical
Protocol: (§1) Endothelial lipase (EL) and hepatic lipase (HL) activities were measured using a fluorescent substrate, A10070, (Invitrogen, CA) doped into an artificial vesicle containing DMPG (Avanti Polar Lipids) as the excipient. Vesicles were prepared by combining 571 μL of 29 mM DMPG in a 1:1 mixture of MeOH and CHCl3 with 2000 μL of 1 mM A10070 in a 1:1 mixture of MeOH and CHCl3. The mixture was dried under nitrogen in multiple vials then resuspended in 20 mL total volume of 50 mM HEPES pH 8.0 buffer containing 50 mM NaCl and 0.2 mM EDTA. The sample was allowed to sit at room temperature for 15 min and then was sonicated 3×4 mins on ice with a Branson Sonicator using duty cycle 1. This preparation provides vesicles with a mole fraction of 0.11 for the FRET substrate.
(§2) The enzymatic assay was measured using 384-well white Optiplates. Each well contained 20 μL of assay buffer (50 mM HEPES pH 8.0, 50 mM NaCl and 1 mM CaCl2) and 0.25 μL of a DMSO solution containing a compound of interest. EL or HL (10 μL) was added and allowed to incubate with the compound for 30 min at 37° C. The source of EL was conditioned media obtained from HT-1080 cells that were transformed using RAGE technology (Athersys) to overexpress endogenous EL, and HL was partially purified from conditioned media obtained from COS cells overexpressing HL. The reaction was started by the addition of 10 μL of a 1:10 dilution of vesicles. The final total reaction volume was […]. The reaction rates were measured on a Gemini plate reader with an excitation wavelength of 490 nm and an emission wavelength of 530 nm. Readings were taken over a period of 60 minutes, and the slope between 300 and 900 secs of the readout was used to calculate the rate of the reaction.

Endothelial lipase (EL) = Endothelial lipase (EL) (Homo sapiens (Human), UniProt Q9Y5X9); test: EL assay: endothelial lipase activity with fluorescent substrate A10070 in DMPG vesicles; format: biochemical
Protocol: as §1, §2

[1] = EL from conditioned media of HT-1080 cells, 30 min incubation with compound at 37° C., A10070/DMPG vesicles

Chain of Endothelial lipase (EL) (Q9Y5X9 21-500): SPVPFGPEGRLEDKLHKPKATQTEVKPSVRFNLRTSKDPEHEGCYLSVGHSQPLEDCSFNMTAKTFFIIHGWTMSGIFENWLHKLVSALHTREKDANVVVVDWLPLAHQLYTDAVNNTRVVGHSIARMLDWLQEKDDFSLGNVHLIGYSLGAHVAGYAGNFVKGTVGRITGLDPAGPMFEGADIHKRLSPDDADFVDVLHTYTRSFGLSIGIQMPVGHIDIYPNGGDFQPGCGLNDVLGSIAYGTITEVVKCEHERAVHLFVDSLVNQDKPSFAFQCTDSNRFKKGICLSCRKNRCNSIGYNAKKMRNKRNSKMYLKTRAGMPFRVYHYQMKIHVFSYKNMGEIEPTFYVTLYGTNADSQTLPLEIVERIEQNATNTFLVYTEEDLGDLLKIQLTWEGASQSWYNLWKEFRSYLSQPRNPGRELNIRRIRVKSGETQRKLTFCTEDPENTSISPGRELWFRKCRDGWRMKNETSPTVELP
Chain of hepatic lipase (HL) (P11150 23-499, species assumed): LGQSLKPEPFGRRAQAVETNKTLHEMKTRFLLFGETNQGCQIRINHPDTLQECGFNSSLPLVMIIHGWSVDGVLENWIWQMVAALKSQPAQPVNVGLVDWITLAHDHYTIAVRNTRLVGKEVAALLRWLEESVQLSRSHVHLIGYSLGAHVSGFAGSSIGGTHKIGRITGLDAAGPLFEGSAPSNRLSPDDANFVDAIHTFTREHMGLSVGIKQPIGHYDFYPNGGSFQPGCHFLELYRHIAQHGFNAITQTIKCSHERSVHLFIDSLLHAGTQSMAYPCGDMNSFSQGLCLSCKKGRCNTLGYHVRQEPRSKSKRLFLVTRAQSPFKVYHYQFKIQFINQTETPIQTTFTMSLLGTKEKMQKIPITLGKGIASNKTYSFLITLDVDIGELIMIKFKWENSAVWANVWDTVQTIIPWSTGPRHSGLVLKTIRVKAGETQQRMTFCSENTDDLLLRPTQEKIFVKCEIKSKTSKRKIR

Row | Compound | pIC50 (hepatic lipase (HL)) | pIC50 (Endothelial lipase (EL)) | pIC50 (Endothelial lipase (EL); [1]) | pIC50 (hepatic lipase (HL); HL partially purified from conditioned media of COS cells, 30 min incubation with compound at 37° C., A10070/DMPG vesicles)
1 | 2-[6-(2-fluorophenyl)-1,3- benzothiazol-2-yl]-N-(2- sulfamoylethyl)-2-(3,3,3- trifluoropropanesulfonyl)a- cetamide [Example B307] | 8.82 | 8.52 | – | –
2 | 2-[6-(3-fluoro-2-hydroxy- pyridin-4-yl)-1,3- benzothiazol-2-yl]-N-(2- sulfamoylethyl)-2-{[4- (trifluoromethoxy)phen- yl]methanesulfonyl}a- cetamide [Example B376] | 5.33 | 8.15 | – | –
3 | NC(=O)c1ccc(-c2cc3sc(C(C(=O)N[C@@H]4CCNC4=O)S(=O)(=O)Cc4ccccc4)nc3cc2F)cc1 (stereo partly drawn) [Example B27, 4-(2-(1-(benzylsulfonyl)-2-oxo-2-(((3R)-2-oxo-3-pyrrolidinyl)amino)ethyl)-5-fluoro-1,3-benzothiazol-6-yl)benzamide] | – | – | 7.03 | –
4 | CS(=O)(=O)C(C(=O)NCCS(N)(=O)=O)c1nc2ccc(-c3ccc(C(=O)N4CCOCC4)c(Cl)c3)cc2s1 (stereo not drawn) [Example B32, 2-(6-(3-chloro-4-(4-morpholinylcarbonyl)phenyl)-1,3-benzothiazol-2-yl)-2-(methylsulfonyl)-N-(2-sulfamoylethyl)acetamide] | 6.03 | > 8.00 | – | –
5 | Cc1cc(-c2ccc3nc(C(C(=O)NCCS(N)(=O)=O)S(C)(=O)=O)sc3c2)cnc1F (stereo not drawn) [Example B33, 2-(6-(6-fluoro-5-methyl-3-pyridinyl)-1,3-benzothiazol-2-yl)-2-(methylsulfonyl)-N-(2-sulfamoylethyl)acetamide] | 7.66 | 7.85 | – | –
6 | CS(=O)(=O)C(C(=O)NCCS(N)(=O)=O)c1nc2ccc(-c3cnn(CCN4CCOCC4)c3)cc2s1 (stereo not drawn) [Example B34, 2-(methylsulfonyl)-2-(6-(1-(2-(4-morpholinyl)ethyl)-1H-pyrazol-4-yl)-1,3-benzothiazol-2-yl)-N-(2-sulfamoylethyl)acetamide] | 6.50 | > 8.00 | – | –
7 | CS(=O)(=O)C(C(=O)NCCS(N)(=O)=O)c1nc2ccc(-c3ccc(F)cc3)cc2s1 (stereo not drawn) [Example B36, 2-(6-(4-fluorophenyl)-1,3-benzothiazol-2-yl)-2-(methylsulfonyl)-N-(2-sulfamoylethyl)acetamide] | > 8.00 | > 8.00 | – | –
8 | CS(=O)(=O)C(C(=O)NCCS(N)(=O)=O)c1nc2ccc(-c3cccc(F)c3)cc2s1 (stereo not drawn) [Example B37, 2-(6-(3-fluorophenyl)-1,3-benzothiazol-2-yl)-2-(methylsulfonyl)-N-(2-sulfamoylethyl)acetamide] | > 8.00 | > 8.00 | – | –
9 | CS(=O)(=O)C(C(=O)NCCS(N)(=O)=O)c1nc2ccc(-c3ccc(OCCN4CCCCC4)cc3)cc2s1 (stereo not drawn) [Example B42, 2-(methylsulfonyl)-2-(6-(4-(2-(1-piperidinyl)ethoxy)phen-yl)-1,3-benzothiazol-2-yl)-N-(2-sulfamoylethyl)a-cetamide] | 8.00 | > 8.00 | – | –
10 | NS(=O)(=O)CCNC(=O)C(c1nc2ccc(-c3ccc(C(=O)NCCO)cc3)cc2s1)S(=O)(=O)CCC(F)(F)F (stereo not drawn) [Example B46, N-(2-hydroxyethyl)-4-(2-(2-oxo-2-((2-sulfamoylethyl)amino)-1-((3,3,3-trifluoropropyl)sul-fonyl)ethyl)-1,3-benzothiazol-6-yl)ben-zamide] | 6.28 | > 8.00 | – | –
11 | C=CCC(C(=O)NCCS(N)(=O)=O)c1nc2ccc(-c3ccccc3)cc2s1 (stereo not drawn) [Reference 1, 2-(6-Phenyl-1,3-benzothiazol-2-yl)-N-(2-sulfamoylethyl)-4-pentenamide, reference compound] | – | 5.03 | – | –

Second part, the compound after the results:

Row | pIC50 (hepatic lipase (HL)) | pIC50 (Endothelial lipase (EL)) | pIC50 (Endothelial lipase (EL); [1]) | pIC50 (hepatic lipase (HL); HL partially purified from conditioned media of COS cells, 30 min incubation with compound at 37° C., A10070/DMPG vesicles) | Compound
12 | – | – | 7.46 | – | CS(=O)(=O)C(C(=O)NCCS(=O)(=O)Nc1ccccc1)c1nc2ccc(-c3ccnc(F)c3)cc2s1 (stereo not drawn) [Example B24, 2-(6-(2-fluoro-4-pyridinyl)-1,3-benzothiazol-2-yl)-2-(methylsulfonyl)-N-(2-(phenylsulfamoyl)ethyl)acetamide]
13 | – | – | > 8.00 | – | NS(=O)(=O)CCNC(=O)C(c1nc2c(F)cc(-c3ccccc3)cc2s1)S(=O)(=O)CCC(F)(F)F (stereo not drawn) [Example B26, 2-(4-Fluoro-6-phenylbenzo[d]thiazol-2-yl)-N-(2-sulfamoylethyl)-2-((3,3,3-trifluoropropyl)sulfonyl)acetamide]
14 | – | – | 7.92 | – | Cc1nnc(CNC(=O)C(c2nc3cc(C)c(-c4ccccc4)cc3s2)S(=O)(=O)Cc2ccccc2)o1 (stereo not drawn) [Example B28, 2-(benzylsulfonyl)-N-((5-methyl-1,3,4-oxadiazol-2-yl)methyl)-2-(5-methyl-6-phenyl-1,3-benzothiazol-2-yl)acetamide]
15 | – | – | 6.56 | – | CS(=O)(=O)C(C(=O)NCCS(=O)(=O)NCC(F)(F)F)c1nc2ccc(-c3ccnc(F)c3)cc2s1 (stereo not drawn) [Example B30, 2-(6-(2-Fluoro-4-pyridinyl)-1,3-benzothiazol-2-yl)-2-(methylsulfonyl)-N-(2-((2,2,2-trifluoroethyl)sulfamoyl)ethyl)acetamide]
16 | – | – | > 8.00 | 6.59 | CC(C)(C)NC(=O)c1ccc(-c2ccc3nc(C(C(=O)NCCS(N)(=O)=O)S(C)(=O)=O)sc3c2)cc1 (stereo not drawn) [Example B31, N-tert-Butyl-4-(2-(1-(methylsulfonyl)-2-oxo-2-((2-sulfamoylethyl)amino)ethyl)-1,3-benzothiazol-6-yl)benzamide]
17 | 7.37 | > 8.00 | – | – | COCCNC(=O)c1ccc(-c2ccc3nc(C(C(=O)NCCS(N)(=O)=O)S(C)(=O)=O)sc3c2)cc1 (stereo not drawn) [Example B35, N-(2-methoxyethyl)-4-(2-{1-(methylsulfonyl)-2-oxo-2-[(2-sulfamoylethyl)a-mino]ethyl}-1,3-benzothiazol-6-yl)ben-zamide]
18 | > 8.00 | > 8.00 | – | – | CS(=O)(=O)C(C(=O)NCCS(N)(=O)=O)c1nc2ccc(-c3ccc4c(c3)OCO4)cc2s1 (stereo not drawn) [Example B38, 2-(6-(1,3-benzodioxol-5-yl)-1,3-benzothiazol-2-yl)-2-(methylsulfonyl)-N-(2-sulfamoylethyl)acetamide]
19 | > 8.00 | > 8.00 | – | – | CS(=O)(=O)C(C(=O)NCCS(N)(=O)=O)c1nc2ccc(-c3ccc(OC(F)(F)F)cc3)cc2s1 (stereo not drawn) [Example B39, 2-(methylsulfonyl)-N-(2-sulfamoylethyl)-2-(6-(4-(trifluoromethoxy)phenyl)-1,3-benzothiazol-2-yl)acetamide]
20 | 7.72 | > 8.00 | – | – | CS(=O)(=O)C(C(=O)NCCS(N)(=O)=O)c1nc2ccc(-c3ccc(C(=O)NCCO)cc3)cc2s1 (stereo not drawn) [Example B40, N-(2-hydroxyethyl)-4-(2-(1-(methylsulfonyl)-2-oxo-2-((2-sulfamoylethyl)a-mino)ethyl)-1,3-benzothiazol-6-yl)ben-zamide]
21 | 7.77 | > 8.00 | – | – | CS(=O)(=O)C(C(=O)NCCS(N)(=O)=O)c1nc2ccc(-c3ccc(C(=O)NCC(F)(F)F)cc3)cc2s1 (stereo not drawn) [Example B41, 4-(2-(1-(methylsulfonyl)-2-oxo-2-((2-sulfamoylethyl)a-mino)ethyl)-1,3-benzothiazol-6-yl)-N-(2,2,2-trifluoroethyl)ben-zamide]
22 | > 8.00 | > 8.00 | – | – | CC1CCN(C(=O)c2ccc(-c3ccc4nc(C(C(=O)NCCS(N)(=O)=O)S(C)(=O)=O)sc4c3)cc2)CC1 (stereo not drawn) [Example B43, 2-(6-{4-[(4-methyl-1-piperidinyl)carbonyl]phen-yl}-1,3-benzothiazol-2-yl)-2-(methylsulfonyl)-N-(2-sulfamoylethyl)a-cetamide]
23 | 6.83 | > 8.00 | – | – | CC(=O)Nc1ccc(-c2ccc3nc(C(C(=O)NCCS(N)(=O)=O)S(=O)(=O)Cc4ccccc4)sc3c2)cc1 (stereo not drawn) [Example B44, 2-(6-(4-acetamidophenyl)-1,3-benzothiazol-2-yl)-2-(benzylsulfonyl)-N-(2-sulfamoylethyl)acetamide]
24 | 7.42 | > 8.00 | – | – | NS(=O)(=O)CCNC(=O)C(c1nc2ccc(-c3ccc(C(=O)NCC(F)(F)F)cc3)cc2s1)S(=O)(=O)CCC(F)(F)F (stereo not drawn) [Example B45, 4-(2-(2-oxo-2-((2-sulfamoylethyl)amino)-1-((3,3,3-trifluoropropyl)sul-fonyl)ethyl)-1,3-benzothiazol-6-yl)-N-(2,2,2-trifluoroethyl)ben-zamide]
25 | 7.46 | > 8.00 | – | – | CS(=O)(=O)C(C(=O)NCCS(N)(=O)=O)c1nc2ccc(-c3ccc(CCO)cc3)cc2s1 (stereo not drawn) [Example B47, 2-(6-(4-(2-hydroxyethyl)phenyl)-1,3-benzothiazol-2-yl)-2-(methylsulfonyl)-N-(2-sulfamoylethyl)acetamide]
26 | – | – | < 4.21 | – | CC(C)c1cc(CNC(=O)C(C)(C)c2nc3ccc(-c4ccccc4)cc3s2)on1 [Reference 2, N-((3-isopropylisoxazol-5-yl)methyl)-2-methyl-2-(6-phenylbenzo[d]thiazol-2-yl)propanamide, reference compound]
